Test results reported in paper PMC7827085 (Pharmaceutics, 2021).

Key:
ABCB1/MDR1/Pgp [1] = target: T1, ABCB1/MDR1/Pgp (Homo sapiens, UniProt P08183); assay: in vitro; conditions: for Effect on ABCB1-dependent CaAM extrusion (in words): PLB-985/ABCB1 cells, test compounds 0.2–50 µM; for IC50 at 40 min: human
Protocol: (§1) For the ABC transporter assays, we used both cell-based and membrane-based functional assays. […] The respective transport activities were assayed by measuring the cellular fluorescence of the respective transported substrates Phengreen (ABCG2) and Calcein (ABCB1 and ABCC1).
(§2) The cells were kept on ice until the flow cytometry measurements. All experiments were performed in triplicate and in at least three biological parallels.
(§3) The cells were kept on ice until the flow cytometry measurements. All experiments were performed in triplicate and in at least three biological parallels. […] The PhenGreen (PG) or Calcein signal was detected in the BL1 channel (emission filter: 530/30 nm). Analysis of the data was carried out by the Attune Nxt Cytometer Software v3.1.2 (Thermo Fischer Scientific, Waltham, MA, USA). The inhibition of transporter activity was calculated by comparing the fluorescence in the presence of the test compound to that in the presence of a specific inhibitor providing maximum inhibition. […] Half-maximum inhibition (IC50) values were calculated by using the Origin2019 software (9.6.5.169, OriginLab Corporation, Northampton, MA, USA). […] In these experiments, we measured Hoechst dye extrusion in HeLa cells stably expressing eGFP and the ABCG2 variants driven by the same promoter—the transgenic cells generated by the Sleeping Beauty transposon system. […] For details, see Zámbó et al.). […] The maximum inhibition was defined for each variant as the fluorescence difference of the samples incubated with and without Ko143, respectively. […] Data analysis was performed using the Attune Nxt Cytometer Software v3.1.2. Two samples per condition and three biological replicates were examined in each experiment.
ABCB1 is a high-affinity active efflux transporter of the viability dye Calcein-AM (CaAM). […] Here, we applied this widely used cellular assay (see https://www.solvobiotech.com/services/categories/dye-efflux-assays) to characterize drug interactions of the applied compounds in intact PLB-985 cells, expressing high levels of the ABCB1 protein.

ABCC1/MRP1 [2] = target: T2, ABCC1/MRP1 (Homo sapiens, UniProt P33527); assay: in vitro; conditions: for Effect on ABCC1-dependent CaAM extrusion (in words): HL60/ABCC1 cells; for IC50 at 40 min: human
Protocol: as §1, §2, §3
Therefore, we applied this assay to characterize the test drug interactions in intact HL60 cells expressing high levels of the ABCC1 protein.

ABCG2/BCRP [3] = target: T3, ABCG2/BCRP (Homo sapiens, UniProt Q9UNQ0); assay: in vitro; conditions: for Effect on ABCG2-dependent PG-DA extrusion (in words): PLB-985/ABCG2 cells; for IC50 at 40 min: human
T3 sequence (Q9UNQ0 1-655): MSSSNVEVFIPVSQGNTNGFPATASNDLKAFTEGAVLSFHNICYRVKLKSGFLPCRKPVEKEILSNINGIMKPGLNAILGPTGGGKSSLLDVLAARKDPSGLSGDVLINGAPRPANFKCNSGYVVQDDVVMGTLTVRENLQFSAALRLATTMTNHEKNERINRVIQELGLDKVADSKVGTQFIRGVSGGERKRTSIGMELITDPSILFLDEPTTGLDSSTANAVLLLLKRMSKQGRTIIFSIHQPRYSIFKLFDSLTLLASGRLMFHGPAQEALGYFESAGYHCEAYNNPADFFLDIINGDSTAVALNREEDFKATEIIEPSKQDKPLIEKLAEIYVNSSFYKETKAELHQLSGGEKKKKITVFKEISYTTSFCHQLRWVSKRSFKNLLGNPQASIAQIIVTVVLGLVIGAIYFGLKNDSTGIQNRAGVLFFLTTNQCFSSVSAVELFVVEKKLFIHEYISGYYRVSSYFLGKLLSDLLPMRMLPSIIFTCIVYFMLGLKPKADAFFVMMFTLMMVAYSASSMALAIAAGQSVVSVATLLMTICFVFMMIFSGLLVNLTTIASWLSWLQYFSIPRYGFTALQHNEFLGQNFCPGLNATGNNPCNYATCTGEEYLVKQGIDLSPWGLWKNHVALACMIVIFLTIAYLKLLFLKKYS
Protocol: as §1, §3
Here, we used both PhenGreen-SK diacetate and Hst dye for these measurements. The PhenGreen (PG) assay is a recently patented method applied for ensuring an efficient ABCG2 transport measurement, as the non-fluorescent PhenGreen diacetate (PG-DA) is actively extruded by ABCG2 and the cellular fluorescence is correlated with ABCG2 transport activity. Therefore, we applied this assay to characterize the test drug interactions in intact PLB-985 cells expressing high levels of the ABCG2 protein. […] ABCG2 inhibition by the test compounds was estimated by their relative (%) inhibition compared to full inhibition by Ko143.

ABCG2/BCRP [4] = target: T3, ABCG2/BCRP; assay: in vitro; conditions: for IC50 at 10 min: human
Protocol: These were employed at 37 °C for 10 min (ABCG2), 1 min (ABCB1), or 3 min (ABCC1), with or without 4 mM Mg-ATP, in a 50 μL final volume. The known reference inhibitors of the transporters (1 µM Ko143 for ABCG2, 1 µM Valspodar for ABCB1, and 200 µM Benzbromarone for ABCC1) served as controls. Each test compound was dissolved in DMSO and a 1 µL volume was added to the samples. After incubation, the samples were filtered and washed, and the substrates in the vesicles were dissolved in 10% SDS and transferred onto another plate. After the addition of a stabilizer, the fluorescence was measured in plate readers (Victor X3 and Enspire Perkin-Elmer, Waltham, MA, USA), while the activity of the radiolabeled substrate was measured by liquid scintillation counting (Perkin Elmer MicroBeta2 liquid scintillation counter, Perkin Elmer, Waltham, MA, USA). ABC transporter-related vesicular transport was calculated by subtracting uptake measured in the presence of Mg-AMP from the values measured in the presence of Mg-ATP.
The effects of the test compounds on ABCG2 activity were also measured in a vesicular transport assay by using inverted membrane vesicles prepared from HEK-293 cells expressing high levels of the ABCG2 transporter.

ABCB1/MDR1/Pgp [5] = target: T1, ABCB1/MDR1/Pgp; conditions: HEK-293/ABCB1 membrane vesicles
ABCC1/MRP1 [6] = target: T2, ABCC1/MRP1; conditions: Sf9/ABCC1 membrane vesicles

T2 sequence (P33527 whole entry): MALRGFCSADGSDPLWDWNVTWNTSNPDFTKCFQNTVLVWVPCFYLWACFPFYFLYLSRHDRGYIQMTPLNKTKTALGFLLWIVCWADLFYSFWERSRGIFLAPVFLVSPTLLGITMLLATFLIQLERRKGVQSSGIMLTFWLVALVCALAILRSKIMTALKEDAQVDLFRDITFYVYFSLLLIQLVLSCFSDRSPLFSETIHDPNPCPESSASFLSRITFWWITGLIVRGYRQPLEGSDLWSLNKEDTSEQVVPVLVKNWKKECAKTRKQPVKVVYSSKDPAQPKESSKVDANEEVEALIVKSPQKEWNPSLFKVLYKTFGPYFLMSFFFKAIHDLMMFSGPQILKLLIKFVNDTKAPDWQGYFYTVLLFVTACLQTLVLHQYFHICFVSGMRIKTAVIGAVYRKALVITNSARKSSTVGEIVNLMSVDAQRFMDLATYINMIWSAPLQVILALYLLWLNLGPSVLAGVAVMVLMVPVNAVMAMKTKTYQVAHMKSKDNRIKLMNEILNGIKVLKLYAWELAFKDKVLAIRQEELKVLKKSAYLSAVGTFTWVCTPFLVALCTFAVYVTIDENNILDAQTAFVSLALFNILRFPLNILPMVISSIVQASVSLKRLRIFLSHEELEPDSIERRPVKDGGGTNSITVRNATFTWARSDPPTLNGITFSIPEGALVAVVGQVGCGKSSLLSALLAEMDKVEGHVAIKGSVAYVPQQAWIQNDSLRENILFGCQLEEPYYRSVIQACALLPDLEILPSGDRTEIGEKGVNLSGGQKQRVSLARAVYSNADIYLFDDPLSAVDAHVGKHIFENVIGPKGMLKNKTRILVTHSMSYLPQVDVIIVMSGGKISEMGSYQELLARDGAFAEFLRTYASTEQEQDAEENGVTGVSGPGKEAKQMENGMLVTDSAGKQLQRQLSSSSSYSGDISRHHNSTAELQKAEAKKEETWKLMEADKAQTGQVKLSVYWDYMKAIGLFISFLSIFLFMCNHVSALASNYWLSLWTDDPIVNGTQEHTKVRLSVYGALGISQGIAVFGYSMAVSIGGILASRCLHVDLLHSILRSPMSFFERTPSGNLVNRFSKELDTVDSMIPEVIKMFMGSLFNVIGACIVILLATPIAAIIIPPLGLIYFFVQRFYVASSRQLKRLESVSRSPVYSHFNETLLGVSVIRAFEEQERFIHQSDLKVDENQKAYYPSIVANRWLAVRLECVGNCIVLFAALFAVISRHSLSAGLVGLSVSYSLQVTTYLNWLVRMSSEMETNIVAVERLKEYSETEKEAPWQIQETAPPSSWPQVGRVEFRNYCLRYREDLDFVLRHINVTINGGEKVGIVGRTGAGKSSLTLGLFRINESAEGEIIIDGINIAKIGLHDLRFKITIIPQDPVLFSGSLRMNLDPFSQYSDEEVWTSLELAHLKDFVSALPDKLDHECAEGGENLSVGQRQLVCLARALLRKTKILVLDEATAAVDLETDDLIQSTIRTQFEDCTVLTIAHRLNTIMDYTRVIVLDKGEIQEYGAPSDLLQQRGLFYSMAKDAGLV
T1 sequence (P08183 whole entry): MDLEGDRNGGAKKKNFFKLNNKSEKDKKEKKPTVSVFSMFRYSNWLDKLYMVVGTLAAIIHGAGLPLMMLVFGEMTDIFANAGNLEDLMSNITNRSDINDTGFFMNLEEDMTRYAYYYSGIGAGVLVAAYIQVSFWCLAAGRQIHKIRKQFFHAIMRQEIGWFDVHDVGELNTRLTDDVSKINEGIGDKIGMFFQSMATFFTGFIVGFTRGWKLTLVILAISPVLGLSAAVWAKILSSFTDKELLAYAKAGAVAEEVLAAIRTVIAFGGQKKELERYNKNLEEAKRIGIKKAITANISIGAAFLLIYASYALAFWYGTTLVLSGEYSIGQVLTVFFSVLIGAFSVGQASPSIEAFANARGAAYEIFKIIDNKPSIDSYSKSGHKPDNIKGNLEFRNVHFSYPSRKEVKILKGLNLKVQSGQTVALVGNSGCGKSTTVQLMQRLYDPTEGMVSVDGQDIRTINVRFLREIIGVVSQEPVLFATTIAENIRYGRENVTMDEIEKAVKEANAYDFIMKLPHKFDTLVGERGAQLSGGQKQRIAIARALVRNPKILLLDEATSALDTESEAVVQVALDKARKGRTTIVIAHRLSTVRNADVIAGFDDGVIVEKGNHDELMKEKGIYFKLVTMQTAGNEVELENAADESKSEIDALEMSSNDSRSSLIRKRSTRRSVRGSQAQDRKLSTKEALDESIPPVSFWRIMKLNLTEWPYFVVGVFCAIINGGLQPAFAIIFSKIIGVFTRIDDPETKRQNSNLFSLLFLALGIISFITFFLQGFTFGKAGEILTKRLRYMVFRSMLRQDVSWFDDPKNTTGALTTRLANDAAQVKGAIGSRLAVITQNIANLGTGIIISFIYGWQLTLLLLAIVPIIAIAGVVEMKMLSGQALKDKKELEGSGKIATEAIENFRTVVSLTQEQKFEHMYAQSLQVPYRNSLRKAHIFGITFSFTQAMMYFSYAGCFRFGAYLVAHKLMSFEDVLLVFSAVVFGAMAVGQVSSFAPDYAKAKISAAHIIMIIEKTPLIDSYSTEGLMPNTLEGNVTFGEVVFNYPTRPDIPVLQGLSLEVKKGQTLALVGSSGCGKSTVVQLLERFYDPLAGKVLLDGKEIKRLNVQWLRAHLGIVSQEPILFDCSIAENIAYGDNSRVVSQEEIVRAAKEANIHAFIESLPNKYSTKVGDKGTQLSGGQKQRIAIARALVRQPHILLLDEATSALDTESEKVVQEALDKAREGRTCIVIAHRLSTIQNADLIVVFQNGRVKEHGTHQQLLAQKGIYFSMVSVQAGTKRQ

| SMILES | Effect on ABCB1-dependent CaAM extrusion (in words) (ABCB1/MDR1/Pgp [1]) | IC50 at 40 min (ABCB1/MDR1/Pgp [1]; intact PLB-985 cells expressing ABCB1, probe Calcein-AM, 0.25 µM) | Effect on ABCC1-dependent CaAM extrusion (in words) (ABCC1/MRP1 [2]) | IC50 at 40 min (ABCC1/MRP1 [2]; intact HL60 cells expressing ABCC1, probe Calcein-AM, 0.25 µM) | Effect on ABCG2-dependent PG-DA extrusion (in words) (ABCG2/BCRP [3]) | IC50 at 40 min (ABCG2/BCRP [3]; intact PLB-985 cells expressing ABCG2, probe PhenGreen-SK diacetate, 0.25 µM) | IC50 at 10 min (ABCG2/BCRP [4]; probe lucifer yellow, 5 µM) | Effect on ABCB1 ATP-dependent NMQ uptake (in words) (ABCB1/MDR1/Pgp [5]) | Effect on ABCC1 vesicular ETGB transport (in words) (ABCC1/MRP1 [6]) | IC50 at 40 min (ABCB1/MDR1/Pgp [1]) | IC50 at 40 min (ABCC1/MRP1 [2]) | IC50 at 40 min (ABCG2/BCRP [3]) | Effect on ABCG2 ATP-dependent LY uptake (in words) (ABCG2/BCRP [4]; HEK-293/ABCG2 membrane vesicles) | IC50 at 10 min (ABCG2/BCRP [4]) | IC50 (ABCG2/BCRP [4]) | Concentration above which ABCC1 vesicular ETGB transport was stimulated (ABCC1/MRP1 [6]) |
| --- | --- | --- | --- | --- | --- | --- | --- | --- | --- | --- | --- | --- | --- | --- | --- | --- |
| NC(=O)c1nc(F)c[nH]c1=O [favipiravir] | did not significantly inhibit | > 50 µM | did not significantly inhibit | > 50 µM | practically no effect | > 50 µM | > 50 µM | no inhibitory effect | practically no effect | – | – | – | – | – | – | – |
| CCN(CCO)CCCC(C)Nc1ccnc2cc(Cl)ccc12 (stereo not drawn) [hydroxychloroquine] | practically no effect | – | practically no effect | – | practically no effect | – | – | practically no effect | practically no effect | > 50 µM | > 50 µM | > 50 µM | practically no effect | > 50 µM | – | – |
| CCC(CC)COC(=O)[C@H](C)N[P@](=O)(OC[C@H]1O[C@@](C#N)(c2ccc3c(N)ncnn23)[C@H](O)[C@@H]1O)Oc1ccccc1 [remdesivir] | did not significantly inhibit | – | did not significantly inhibit | – | – | – | – | – | significantly stimulated | > 50 µM | – | > 50 µM | – | > 50 µM | > 20 µM | above 25 μM |
